In paper PMC3748076 (2013):

Tests used:
[1] = test system: WT 39-mer Bcl-2 promoter sequence G-quadruplex (39Bcl-2) (DNA, G4) AGGGGCGGGCGCGGGAGGAAGGGGGCGGGAGCGGGGCTG; experiment: ITC; settings: 130 mM KCl, 20 mM potassium phosphate, 2 mM K4EDTA, pH 7.0, 25 °C
[2] = test system: WT 39-mer Bcl-2 promoter sequence G-quadruplex (39Bcl-2) (DNA, G4) AGGGGCGGGCGCGGGAGGAAGGGGGCGGGAGCGGGGCTG; experiment: ESI-MS; settings: 50 mM ammonium acetate, 20% methanol, pH about 7, 80 µM DNA, 320 µM porphyrin

| SMILES | K1 ([1]; site 1 of 2 (two equivalent sites per mode)) | binding ([2]; no free DNA seen) | K1 ([1]; two equivalent sites) | binding ([2]; some free DNA seen) |
| --- | --- | --- | --- | --- |
| C[n+]1ccc(-c2c3nc(c(-c4cc[n+](C)cc4)c4ccc([nH]4)c(-c4cc[n+](C)cc4)c4nc(c(-c5cc[n+](C)cc5)c5ccc2[nH]5)C=C4)C=C3)cc1 | 37.0 ± 4.0 × 10^5 | yes | – | – |
| C[n+]1cccc(-c2c3nc(c(-c4ccc[n+](C)c4)c4ccc([nH]4)c(-c4ccc[n+](C)c4)c4nc(c(-c5ccc[n+](C)c5)c5ccc2[nH]5)C=C4)C=C3)c1 | – | – | 2.6 ± 0.5 × 10^5 | yes |
| C[n+]1ccccc1-c1c2nc(c(-c3cccc[n+]3C)c3ccc([nH]3)c(-c3cccc[n+]3C)c3nc(c(-c4cccc[n+]4C)c4ccc1[nH]4)C=C3)C=C2 | – | – | 0.7 ± 0.5 × 10^5 | yes |
